# Data reported in BigSolDB 2.1.
smiles,measurement,setting,value
CO/N=C(\C(=O)Sc1nc2ccccc2s1)c1csc(N)n1,solubility (mole fraction),"in ethanol, 277.67 K",0.000203
same,solubility (mole fraction),"in ethanol, 283.11 K",0.000248
same,solubility (mole fraction),"in ethanol, 288.17 K",0.000325
same,solubility (mole fraction),"in ethanol, 293.09 K",0.000399
same,solubility (mole fraction),"in ethanol, 298.17 K",0.000517
same,solubility (mole fraction),"in ethanol, 303.09 K",0.000688
same,solubility (mole fraction),"in isobutanol, 277.67 K",0.000148
same,solubility (mole fraction),"in isobutanol, 283.07 K",0.000171
same,solubility (mole fraction),"in isobutanol, 287.99 K",0.000206
same,solubility (mole fraction),"in isobutanol, 292.79 K",0.000268
same,solubility (mole fraction),"in isobutanol, 297.77 K",0.000345
same,solubility (mole fraction),"in isobutanol, 304.27 K",0.000531
same,solubility (mole fraction),"in isopentanol, 277.65 K",0.000183
same,solubility (mole fraction),"in isopentanol, 283.07 K",0.000215
same,solubility (mole fraction),"in isopentanol, 288.37 K",0.000286
same,solubility (mole fraction),"in isopentanol, 293.03 K",0.000371
same,solubility (mole fraction),"in isopentanol, 298.17 K",0.000472
same,solubility (mole fraction),"in isopentanol, 302.63 K",0.000622
same,solubility (mole fraction),"in isopropanol, 277.91 K",0.000116
same,solubility (mole fraction),"in isopropanol, 283.21 K",0.000142
same,solubility (mole fraction),"in isopropanol, 288.05 K",0.000168
same,solubility (mole fraction),"in isopropanol, 293.19 K",0.000211
same,solubility (mole fraction),"in isopropanol, 298.13 K",0.000283
same,solubility (mole fraction),"in isopropanol, 303.13 K",0.000365
same,solubility (mole fraction),"in n-butanol, 278.11 K",0.000262
same,solubility (mole fraction),"in n-butanol, 283.53 K",0.00032
same,solubility (mole fraction),"in n-butanol, 288.37 K",0.000424
same,solubility (mole fraction),"in n-butanol, 293.03 K",0.000525
same,solubility (mole fraction),"in n-butanol, 297.73 K",0.000662
same,solubility (mole fraction),"in n-butanol, 303.71 K",0.000962
same,solubility (mole fraction),"in n-pentanol, 278.27 K",0.000283
same,solubility (mole fraction),"in n-pentanol, 283.33 K",0.00034
same,solubility (mole fraction),"in n-pentanol, 288.15 K",0.000433
same,solubility (mole fraction),"in n-pentanol, 293.23 K",0.000564
same,solubility (mole fraction),"in n-pentanol, 298.17 K",0.000744
same,solubility (mole fraction),"in n-pentanol, 303.15 K",0.000992
same,solubility (mole fraction),"in n-propanol, 277.85 K",0.000226
same,solubility (mole fraction),"in n-propanol, 283.17 K",0.000256
same,solubility (mole fraction),"in n-propanol, 288.13 K",0.000332
same,solubility (mole fraction),"in n-propanol, 293.17 K",0.000414
same,solubility (mole fraction),"in n-propanol, 297.97 K",0.000544
same,solubility (mole fraction),"in n-propanol, 302.81 K",0.00079
